For data set [1], the system named is chondrocytes. As to the kind of experiment: Immunohistochemical detection of COL2A1 in chondrocytes. The class given is cell-based, New Zealand white rabbit. Conditions: 1 μM, 5 days. How it is done: The articular cartilage of New Zealand white rabbit aged 2 months old was cut under sterile conditions, and cut into a size of 1 mm. The articular cartilage was digested at 37° C. according to the following procedure: (1) digested with 2 mg/ml hyaluronidase for 45 minutes; (2) digested with 2 mg/ml trypsin for 45 minutes; and (3) digested with 4 mg/ml type II collagenase for 3 hours, washed, and then centrifuged (1500 r/min) for 5 minutes; and the precipitate was cultured in a DMEM medium containing 15% fetal bovine serum. Immunohistochemical Detection of COL2A1 Chondrocytes were inoculated at 3.5×10^5 cells/ml in a 6-well culture plate with coverslips, and different concentrations of BM23 peptides were added; PBS was set as a negative control group, and IGF-1 was set as a positive control group. The 6-well culture plate was placed in a 5% CO2 saturated water-vapor carbon dioxide incubator for a culture at 37° C. for 5 days. Immunohistochemical staining was performed as in Embodiment 3.

Data set [2] concerns rat bone marrow mesenchymal stem cells (BMSCs). As to the kind of experiment: Chondrogenic induction of BMSCs, quantitative PCR of COL2A1 and ACAN mRNA. The class given is cell-based. Conditions: rat BMSCs in chondrogenic medium. How it is done:
Three SD rats aged 8 weeks were sacrificed by a dislocation method and disinfected with 70% ethanol for 5 minutes. The abdominal wall layers of the three SD rats were then cut with scissors, an incision of each SD rat was pulled to a femur, and muscles on the femur were carefully separated.
A middle of the femur was cut off, and a bone marrow cavity was repeatedly washed by a low-sugar DMEM medium (containing 1 mL/L of heparin) sucked with a syringe to flush out bone marrow.
The bone marrow was repeatedly washed with the syringe, and prepared into a single cell suspension by successively passing through needle No. 7 and needle No. 4.
The single cell suspension was centrifuged (1500 r/min, 10 min), and a supernatant was discarded; DMEM-F12 complete medium containing 10% FBS was added, and then an inoculation was performed in a culture flask at a density of 10^7 cells/mL, and the culture flask was placed in an incubator having 5% CO2 at 37° C. for a culture.
The cells were purified by a differential adherent culture. The culture solution was changed 48 hours after the inoculation, and thereafter, the culture solution was changed every 3 days to remove non-adherent hematopoietic cells.
After the cells grew to 80%-90%, a passage was performed. The culture solution was removed, and the cells were washed with PBS to remove residual serum; and the PBS was removed.
A BMSCs digestive juice (containing 0.25% trypsin and 0.02% EDTA solution) was added for a slight shaking until the BMSCs digestive juice just covers the bottom of the culture flask; and a digestion time was about 5 minutes. Then, the passage was carried out.
The cells were transferred to a centrifuge tube, centrifuged at 1500 r/min for 10 minutes; a supernatant was removed; and a complete culture medium of mesenchymal stem cells was added for re-suspending the cells.
The BM23 peptide was dissolved in phosphate buffered saline (PBS).
(§1) The cells were re-suspended in a complete chondrogenic medium (purchased from Guangzhou Cyagen Biosicences Inc., Item No.: RASMX-90011) containing different concentrations of BM23 peptides (0.1 μM, 0.3 μM, and 1 μM), so that the concentration of BMSCs was 5.0×10^5 cells per ml. PBS was used as a negative control, and 1 μM human insulin growth factor (IGF-1, purchased from Beijing Yiqiao Shenzhou Biotechnology Co., Ltd.) was used as a positive control.
The treated BMSCs were incubated at 37° C. under 5% CO2 saturated humidity. The medium was changed every 2-3 days, and 0.5 mL of fresh complete chondrogenic medium was added to each tube. […]
Quantitative PCR Detection […]
Quantitative PCR was performed using cDNA as a template and the following primers: • (1) rat COL2A1-F1: 5′ […] […]

For a further data set, the system named is mesenchymal stem cells. As to the kind of experiment: Immunohistochemical detection of COL2A1 in mesenchymal stem cells. The format is cell-based, rat. Conditions: 1 μM. How it is done:
as §1
The treated BMSCs were incubated at 37° C. under 5% CO2 saturated humidity. The medium was changed every 2-3 days, and 0.5 mL of fresh complete chondrogenic medium was added to each tube.
Generally, samples can be collected after 28 days of continuous induction; and cartilage balls can be subjected to formalin fixation, paraffin embedding, sectioning and alcian blue staining.
Paraffin Embedding of Tissues:
The specimens were fixed with 4% paraformaldehyde for 24-36 hours.
The specimens were taken out and washed to remove the fixative, and a material with a suitable size (about 0.2 cm in thickness) was cut for embedding.
The specimens were respectively treated once with 70%, 80%, 90% and 95% ethanol, and 60 minutes are for each treatment. The specimens were treated twice with 100% ethanol, and 50 minutes are for each time.
The specimens were treated once with ½xylene-½ absolute ethanol for 15 minutes. […]

Data set [3] relates to chondrocytes. As to the kind of experiment: Proliferation of chondrocytes by MTS assay. The format is cell-based, New Zealand white rabbit. Conditions: 5 days of treatment, OD 570 nm, BM23 peptide 0.1, 0.3, 1 μM, IGF-1 1 μM. How it is done: The articular cartilage of New Zealand white rabbit aged 2 months old was cut under sterile conditions, and cut into a size of 1 mm. The articular cartilage was digested at 37° C. according to the following procedure: (1) digested with 2 mg/ml hyaluronidase for 45 minutes; (2) digested with 2 mg/ml trypsin for 45 minutes; and (3) digested with 4 mg/ml type II collagenase for 3 hours, washed, and then centrifuged (1500 r/min) for 5 minutes; and the precipitate was cultured in a DMEM medium containing 15% fetal bovine serum. […] Detection of the Proliferation of Chondrocytes by MTS Assay Chondrocytes were inoculated in a 96-well plate at 2×10^4 cells/well, and different concentrations of BM23 peptides (0.1 μM, 0.3 μM, and 1 μM) were added; PBS was set as a negative control group, and IGF-1 (1 μM) was set as a positive control group. The 96-well plate was placed in a 5% CO2 saturated water-vapor carbon dioxide incubator for a culture at 37° C. for 5 days. 20 μl of MTS mixture was added to each well, and the culture was continued for 3-4 hours for coloration. Before testing, the culture plate was shaken for 10 seconds to uniformly mix colors. The optical density (OD) of each well was measured at a wavelength of 570 nm on an enzyme-linked immunometric meter.

Data set [4] has as its system knee articular cartilage defect. As to the kind of experiment: Rabbit cartilage repair model. The class given is in vivo, New Zealand rabbits. Conditions: for general observation score: 90 days after first administration, 0-4 point scale; for histopathological scores of articular cartilage: 90 days, ICRS pathological scoring, grade 0-6, six rabbits. How it is done: Animals: New Zealand rabbits, 2 months old, half male and half female
Construction of models: New Zealand rabbits were anesthetized with 6% pentobarbital sodium (0.7 mL/kg) via marginal ear veins. After anesthesia, a longitudinal incision having a length of about 3 cm was made on the medial side of the knee joint of the left hind leg; the skin, subcutaneous tissue and joint capsule were cut successively to maintain the integrity of the patellar ligament; and the patella was turned outward to expose the femoral condyle. When the knee joint flexes 90°, an articular cartilage defect with a diameter of 4.2 mm and a depth of 3 mm was drilled in the femur and the middle of lateral intercondylar articular surfaces corresponding to the patella by using a drill bit with a diameter of 4.2 mm (according to visible bleeding on subchondral bone). The defect was washed with normal saline without any other treatment. […] After the patella is reset, the muscle and skin incisions are sequentially sutured. After the operation, immediately, the animals were intramuscularly injected with penicillin sodium once a day for 3 consecutive days to prevent infection.
Administration: the New Zealand rabbits with knee articular cartilage defects were divided into four groups: negative control group, low-dose group (1 mg/rabbit), medium-dose group (3 mg/rabbit) and high-dose group (10 mg/rabbit), 12 rabbits in each group, half male and half female in each group. On the 6th day after constructing the models, each group of rabbits was administered intra-articularly. Namely, 1 mg/rabbit, 3 mg/rabbit and 10 mg/rabbit were administered to the test rabbits, respectively, and the administration volume was 0.2 ml.
Sacrifice and observation: at 90 days after the first administration, 6 rabbits (half male and half female) were selected from each group and sacrificed, and the repair situation of the knee articular cartilage in each rabbit was observed by dissection.
(1) General observation: during necropsy, the articular cavity was opened, the patella articular surface was exposed, and the repair of the filling edge of the defect, the flatness of the cartilage surface, the color of the new cartilage, etc., were observed.
Subsequently, scoring was performed according to the following criteria:
0 point: the articular surface is smooth and the color is normal;
1 point: the articular surface is rough, with small fissures and dark color;
2 points: the cartilage defect has reached the middle layer of cartilage;
3 points: the articular surface ulcer is formed, and the cartilage defect has reached the deep layer of cartilage; and
4 points: the cartilage is exfoliated, and subchondral bones are exposed.
(2) Histological pathological observation: observation was performed under light microscope, and scoring was performed according to the ICRS pathological scoring standard:
Grade 0: the cartilage surface is flat and the cartilage is intact;
Grade 1: the superficial fibers are formed in the cartilage surface and are uneven;
Grade 2: the cartilage surface is discontinuous, accompanied by cell proliferation; and metachromatic materials are increased or decreased in the II-III layers;
Grade 3: cartilage rhagadia has reached the III layer or erosion occurs;
Grade 4: the erosion of the cartilage is aggravated, and the articular cartilage is damaged;
Grade 5: the articular cartilage is exfoliated; and
Grade 6: the joint is deformed.
After the rabbits were sacrificed by anesthesia and exsanguination, the articular cartilage tissue was exfoliated and fixed with 10% neutral formalin, followed by dehydration, conventional paraffin embedding, sectioning, HE staining and mounting, and detection was performed by light microscopy.

Another data set is described as follows: in vivo. Conditions: New Zealand, rabbit, iv, 0.5 mg/kg. Also on record: species or system New Zealand rabbits.
Setting [5] is: high-dose group 10 mg/rabbit intra-articular.
[6] abbreviates: low-dose group 1 mg/rabbit intra-articular.
The mark [7] stands for this setting: medium-dose group 3 mg/rabbit intra-articular.

Peptide text beside a SMILES is read from it.

Procedure for in vivo: LC/MSMS methodology was established, Finnigan TSQ Discovery Max LC/MS was equipped with Surveyor HPLC system. The detection limit was 1-1000 ng/ml, and the recovery rate was over 80%. Six New Zealand rabbits were randomly divided into two groups (three rabbits in each group). […] The blood concentration was measured by LC/MSMS method, 100 μl of blood plasma was taken, 500 μl of a mixed solvent containing IS 2000 ng/ml of acetonitrile and methanol solution at a ratio of 70:30 was added, shaken, and centrifuged at 12000 rpm for 10 minutes. 20 μl of supernatant was injected for LC/MSMS analysis. The main pharmacokinetic parameters were calculated by using 3P97 pharmacokinetic software.

For the compound `CC[C@H](C)[C@H](NC(=O)[C@H](CCCNC(=N)N)NC(=O)[C@H](Cc1c[nH]cn1)NC(=O)[C@H](CCCCNC(=N)N)NC(=O)[C@H](CC(N)=O)NC(=O)[C@H](CCCNC(=N)N)NC(=O)[C@H](Cc1c[nH]cn1)NC(=O)[C@H](CCCCN)NC(=O)[C@H](CC(C)C)NC(=O)[C@H](N)CCC(N)=O)C(=O)N[C@@H](CCCCN)C(=O)N[C@H](C(=O)NCC(=O)N[C@@H](CO)C(=O)N[C@H](C(=O)N[C@@H](CC(N)=O)C(=O)N[C@@H](Cc1c[nH]cn1)C(=O)NCC(=O)N[C@@H](CC(C)C)C(=O)N[C@H](C(=O)N[C@@H](CCC(N)=O)C(=O)N[C@@H](CO)C(=O)N[C@@H](CC(C)C)C(N)=O)C(C)C)[C@@H](C)O)[C@@H](C)O` [BM23 peptide] (HELM PEPTIDE1{[dQ].L.K.H.R.N.[N=C(N)NCCCC[C@H](N[*:1])C(=O)[*:2]].H.R.I.K.T.G.S.T.N.H.G.L.V.Q.S.L.[am]}$$$$V2.0; N-terminus assumed), the “expression level of COL2A1 protein (immunohistochemical staining) vs PBS treatment group” value with chondrocytes [1] and with mesenchymal stem cells was “significantly increased” throughout. In addition, the results for the “mRNA expression level of ACAN compared with PBS treatment” value in data set [2] (0.1 μM), in data set [2] (0.3 μM) and in data set [2] (1 μM) were “no significant effect”, “significantly different” and “significantly different”, respectively. Moreover, the “mRNA expression level of COL2A1 compared with PBS treatment” value in data set [2] (0.1 μM) is reported as “no significant effect”. In addition, the “proliferation of chondrocytes compared with the PBS group” value in the data set with chondrocytes [3] is given as “significantly promoted”. Besides, the results for the general observation score in data set [4] (setting [5]), in data set [4] (setting [6]) and in data set [4] (setting [7]) were 2.1 points, 3.7 points and 3.0 points, respectively. The “histopathological scores of articular cartilage” value in data set [4] (setting [5]) is recorded as 2.1 points; in data set [4] (setting [6]), 3.7 points; in data set [4] (setting [7]), 3.0 points. For the same compound, in “in vivo”, the half-life came to 123 ± 38 min.
With “positive control: human insulin growth factor (IGF-1), used at 1 μM as positive control”, the “proliferation of chondrocytes compared with the PBS group” value in the data set on chondrocytes [3] is on record as “significantly promoted”.
